The source of these data is US5877165A, “Boronated porhyrins and methods for their use” (priority 1997, dated 1999).

This series relates to KHJJ mammary carcinomas. The series can be described thus: Boron biodistribution, mice with KHJJ mammary carcinomas (Examples 4-7, Table 1). Format: in vivo, BALB/c mice. The settings on record: mouse, in vivo; for Boron Concentration: Blood / Boron Concentration: Brain / Boron Concentration: Tumor: ip, 160 mg/kg. The procedure:
Female BALB/c mice (Taconic Farms, Germantown, N.Y.) (20-25 g) were implanted with either KHJJ or EMT-6 tumors. For KHJJ tumors, 1-3 mm^3 tumor fragments were implanted subcutaneously (s.c.) in the dorsal thorax of each mouse using an 18-gauge trocar. For EMT-6 tumors, 2.5×10^5 cells were implanted similarly using a 27-gauge needle. EMT-6 tumor cells were grown alternately in vivo and in vitro. Single-cell suspensions were prepared from mouse-grown tumors by trypsinization. These were grown in cell culture for several passages and then were frozen in 10% DMSO and stored in liquid nitrogen. Prior to implantation in mice, the cells were thawed and grown in tissue culture in Alpha-MEM with 10% FBS for several passages.
Under deep halothane anesthesia leading to euthanasia, right ventricular blood was collected in Microtainer (Becton-Dickinson, Rutherford, N.J.) tubes containing EDTA for hematological analyses and boron assays of whole blood and in Microtainer™ tubes containing lithium heparin for chemical analyses and enzyme assays of blood plasma. Tumor, brain, fat, muscle, and liver tissues were sampled at necropsy for boron analyses.
Direct current plasma-atomic emission spectroscopy [DCP-AES] (ARL/Fisons Model SS-7) was used (detection limit: 0.1 μg/ml). Samples (50-130 mg) were digested at 60° C. with sulfuric acid:nitric acid (1:1). Triton X-100 and water were added to give final concentrations of ≈50 mg tissue/ml, 15% total acid v/v and 5% Triton X-100 v/v. Fat and liver tissues were assayed for ^10 B by prompt-gamma spectroscopy (Fairchild, et al., 1986). The prompt-gamma measurements were multiplied by 5.0 to give the total boron concentrations due to the use of boron of natural isotope abundance in the syntheses of all boronated porphyrins reported.
Seven mice having KHJJ mammary carcinomas were given one intraperitoneal (i.p.) injection of 900 μg/g body weight of the boron compound presently used for BNCT of malignant brain tumors, p-boronophenylalanine (BPA) complexed with fructose. BPA was prepared in accordance with procedure described in Coderre, et al., 1996 incorporated herein by reference in its entirety as if set forth in full.
Mice were euthanized during the collection of blood while under Halothane anesthesia. At necropsy, the apparent states of structural integrity, consistency, color or abnormality, if any, of tissues were observed and tumor, brain and liver tissues were collected from each mouse for boron analysis.
Eight mice having KHJJ mammary carcinomas were injected with the NiTCP solution in the amount of 160 μg NiTCP/g body weight (36 μgB/g body weight) in six i.p. injections over 20 hours.
Six hours after the mice were last injected with NiTCP, mice were euthanized during the collection of blood while under Halothane anesthesia and right ventricular blood was collected from each mouse for hematological and chemical analysis without pooling the samples. At necropsy, the apparent states of structural integrity, consistency, color, or abnormality, if any, of tissues were observed and tumor, brain and liver tissues were collected from each mouse for boron analysis without pooling the samples.
Seven mice having KHJJ mammary carcinomas were injected with the NiTCP solution in the amount of 160 μg NiTCP/g body weight (36 μgB/g body weight) in six i.p. injections over 20 hours.
Sixteen hours after the mice were injected with NiTCP, mice were euthanized during the collection of blood while under Halothane anesthesia and right ventricular blood was collected from each mouse for hematological and chemical analysis without pooling the samples. At necropsy, the apparent states of structural integrity, consistency, color, or abnormality, if any, of tissues were observed and tumor, brain and liver tissues were collected from each mouse for boron analysis. […]

Take “Nickel Tetracarboranylphenylporphyrin [NiTCP]”: the “boron delivered to tumor relative to BPA” value is “twice the amount of boron to tumor than that of BPA”. For the setting “16 h”, the “Boron Concentration: Blood” value is 13.2 (4.2-30.5) μg B/g, the “Boron Concentration: Brain” value is listed as 3.8 (2.4-5.0) μg B/g and the “Boron Concentration: Tumor” value is 25.5 (16.2-38.7) μg B/g. Besides, where the note is “78 h”, the “Boron Concentration: Blood” value is listed as 0.2 (0.4-5.8) μg B/g, the “Boron Concentration: Brain” value is given as 1.7 (0.1-0.2) μg B/g and the “Boron Concentration: Tumor” value is reported as 17.0 (9.2-28.2) μg B/g.
